Assay results reported in the supplement of paper PMC8967900.

Assays:
Experiment in all cases: selective drug sensitivity score (sDSS, relative to normal bone marrow) (sDSS (score)); higher = more potent and effective on the cell line relative to normal bone marrow cells
Conditions in all cases: 72 h
697 = system: 697
ALL-SIL = system: ALL-SIL
CCRF-CEM = system: CCRF-CEM
COG-LL-319h = system: COG-LL-319h
COG-LL-355h = system: COG-LL-355h
KARPAS-45 = system: KARPAS-45
KASUMI-10 = system: KASUMI-10
KASUMI-2 = system: KASUMI-2
MHH-CALL-2 = system: MHH-CALL-2
MHH-CALL-4 = system: MHH-CALL-4
NALL-1 = system: NALL-1
NALM-16 = system: NALM-16
NALM-6 = system: NALM-6
P30-OHKUBO = system: P30-OHKUBO
PF-382 = system: PF-382
RPMI-8402 = system: RPMI-8402
SEM cells = system: SEM cells
SUP-B15 = system: SUP-B15
TANOUE = system: TANOUE
TMD5 = system: TMD5
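Also: ALL cell lines in 384-well plates, five doses spanning 10,000-fold, each plate scaled between vehicle and 100 µmol/L benzalkonium chloride controls, sDSS an adapted area-under-curve metric.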

Structure (SMILES) | selective drug sensitivity score 697 | selective drug sensitivity score (ALL-SIL) | selective drug sensitivity score (CCRF-CEM) | selective drug sensitivity score (COG-LL-319h) | selective drug sensitivity score (COG-LL-355h) | selective drug sensitivity score (KARPAS-45) | selective drug sensitivity score (KASUMI-10) | selective drug sensitivity score (KASUMI-2) | selective drug sensitivity score (MHH-CALL-2) | selective drug sensitivity score (MHH-CALL-4) | selective drug sensitivity score (NALL-1) | selective drug sensitivity score (NALM-16) | selective drug sensitivity score (NALM-6) | selective drug sensitivity score (P30-OHKUBO) | selective drug sensitivity score (PF-382) | selective drug sensitivity score (RPMI-8402) | selective drug sensitivity score (SEM cells) | selective drug sensitivity score (SUP-B15) | selective drug sensitivity score (TANOUE) | selective drug sensitivity score (TMD5)
CCN(CC)Cc1ccc2cc(COC(=O)Nc3ccc(C(=O)NO)cc3)ccc2c1 [Givinostat] (top concentration 1000 nM) | 4.8 | 8.6 | 3.6 | 10.1 | 5 | 11.1 | 4.7 | 10.6 | 8.6 | 3.4 | -0.4 | -1 | 1.2 | 3.7 | 2.9 | 3.9 | 4.4 | 8.1 | -4.5 | -0.1
CS(=O)(=O)c1ccc(C(=O)Nc2ccc(Cl)c(-c3ccccn3)c2)c(Cl)c1 [Vismodegib] (top concentration 10000 nM) | -0.84 | 0.36 | -1.14 | 5.56 | 2.26 | -1.14 | -1.14 | 3.96 | 2.86 | 0.16 | 1.06 | -1.14 | -1.14 | 0.36 | -1.14 | -1.14 | 2.06 | 11.3 | -1.14 | 1.26
CC(C)(C)c1cnc(CSc2cnc(NC(=O)C3CCNCC3)s2)o1 [SNS-032] (top concentration 10000 nM) | -2.64 | -3.84 | -1.74 | -2.24 | 0.16 | -2.24 | -2.64 | -5.44 | 2.96 | -1.04 | -4.94 | -6.04 | -2.44 | -0.34 | -5.34 | -4.74 | -3.24 | -3.14 | -14 | -4.54
Cc1ccc(C(=O)Nc2cccc(C(F)(F)F)c2)cc1Nc1nc(-c2cccnc2)nc2c1cnn2C [NVP-BHG712] (top concentration 10000 nM) | 3.78 | 13.3 | 3.38 | 3.68 | 4.48 | 3.48 | 3.38 | 2.38 | 5.28 | 1.18 | 2.98 | -2.32 | -2.32 | 5.98 | 3.38 | 5.08 | 2.48 | 7.98 | -2.32 | 7.28
C=C(c1ccc(C(=O)O)cc1)c1cc2c(cc1C)C(C)(C)CCC2(C)C [Bexarotene] (top concentration 10000 nM) | -2.7 | -4.2 | -3.4 | -5.3 | -5.1 | -1.8 | -1.9 | -5.3 | 3.5 | 3.3 | -4.5 | -4.1 | -3.4 | -5.3 | -4.6 | -4 | 2.9 | -4.8 | -5.3 | 0.1
O=C(Nc1cc(Oc2cc(F)c(NC(=O)C3(C(=O)Nc4ccc(F)cc4)CC3)cc2F)ccn1)C1CC1 [Altiratinib] (top concentration 10000 nM) | 4.24 | 13.9 | -0.16 | 2.84 | -0.36 | 2.74 | 8.84 | -0.66 | 3.74 | 2.84 | 4.14 | -2.56 | 1.34 | 1.84 | 0.64 | 1.64 | 13.7 | 6.64 | -2.56 | 3.24
CNCc1ccc(-c2[nH]c3cc(F)cc4c3c2CCNC4=O)cc1 [Rucaparib] (top concentration 10000 nM) | 6.42 | 0.22 | 1.32 | 6.32 | 0.92 | 0.72 | 1.12 | 3.02 | 9.02 | 5.92 | -0.58 | -0.58 | 0.62 | 0.42 | -0.58 | 0.32 | 2.72 | 5.42 | -0.58 | -0.38
CNC(=O)c1nn(C)c2c1C(C)(C)Cc1cnc(Nc3ccc(N4CCN(C)CC4)cc3)nc1-2 [Milciclib] (top concentration 10000 nM) | 12.5 | 10.9 | 2.04 | 7.64 | 5.44 | 5.04 | 12.6 | -2.56 | 9.54 | -0.06 | -0.86 | 3.34 | 1.94 | 4.94 | 4.84 | 5.54 | 10 | 8.14 | -3.76 | -1.16
CCc1nc(C(N)=O)c(Nc2ccc(N3CCC(N4CCN(C)CC4)CC3)c(OC)c2)nc1NC1CCOCC1 [Gilteritinib] (top concentration 1000 nM) | 1.88 | -2.52 | -2.42 | 13.6 | 2.38 | -2.12 | 10.4 | -2.52 | -1.32 | -2.52 | -2.52 | -2.52 | -2.52 | 7.38 | -2.52 | -1.32 | 4.38 | -2.42 | -2.52 | -2.52
Cn1ncc(Cl)c1-c1cc(C(=O)N[C@H](CN)Cc2cccc(F)c2)sc1Cl [Afuresertib] (top concentration 1000 nM) | 0.76 | 3.66 | 5.36 | 7.76 | 2.76 | 3.06 | -2.34 | 10.2 | 7.36 | 5.06 | -2.34 | 1.46 | 4.66 | 5.56 | 2.66 | 1.16 | 0.36 | 5.66 | -1.94 | -2.34
COc1ccc(S(=O)(=O)Nc2cccnc2Nc2ccc(O)cc2)cc1 [ABT-751] (top concentration 10000 nM) | 12.8 | 17.6 | 12.2 | 10.7 | 1.02 | 12.2 | 8.12 | 4.72 | 12.6 | 3.52 | 10.8 | 11.5 | 10.7 | 11.6 | 9.42 | 11.9 | 14.7 | 10.8 | -3.48 | 7.32
Cn1cncc1[C@@](N)(c1ccc(Cl)cc1)c1ccc2c(c1)c(-c1cccc(Cl)c1)cc(=O)n2C [Tipifarnib] (top concentration 10000 nM) | 6.9 | 11.1 | 10.3 | 8.2 | 4.5 | 25.4 | 3 | -1.3 | 7.8 | 6.6 | 1.4 | 9.9 | 10.6 | 3.5 | 13 | 20.9 | 18.6 | 8.9 | -7.5 | 6.8
COc1cc(N2CCC(N3CCN(C)CC3)CC2)ccc1Nc1ncc(Cl)c(Nc2ccccc2P(C)(C)=O)n1 [Brigatinib] (top concentration 1000 nM) | -1.84 | -3.34 | -3.34 | 3.26 | 2.86 | -1.74 | 4.76 | -3.24 | 7.66 | -3.34 | -3.34 | -3.14 | 0.26 | -3.34 | -2.84 | -2.44 | 4.06 | -3.34 | -3.34 | -2.04
CC1(C)CC[C@]2(NC(=O)C(C)(F)F)CC[C@]3(C)[C@H](C(=O)C=C4[C@@]5(C)C=C(C#N)C(=O)C(C)(C)[C@@H]5CC[C@]43C)[C@@H]2C1 [Omaveloxolone] (top concentration 10000 nM) | 4.78 | 1.28 | 0.78 | 10.5 | 4.88 | 1.68 | 2.58 | 6.38 | 0.58 | 1.28 | 3.98 | 4.58 | 2.58 | 0.68 | 1.08 | 0.88 | 4.88 | 8.38 | -0.52 | 1.48
COc1ccc(Cn2ccc3ccc(C(=O)NO)cc32)cc1 (top concentration 10000 nM) | 4.34 | 2.64 | 3.34 | 8.04 | 0.74 | 2.94 | 3.14 | -1.06 | 6.24 | 0.64 | -0.86 | 2.44 | 1.54 | 2.24 | 1.84 | 1.54 | 2.94 | 3.64 | 1.34 | -0.96
CC(=O)Nc1cccc(-n2c(=O)n(C3CC3)c(=O)c3c(Nc4ccc(I)cc4F)n(C)c(=O)c(C)c32)c1 [Trametinib] (top concentration 250 nM) | -2.64 | -8.04 | -1.84 | -0.74 | 5.06 | -7.14 | -5.34 | 5.86 | 2.96 | 0.06 | -4.84 | -1.24 | 2.86 | -8.04 | -5.44 | -8.04 | -8.04 | 13.6 | -7.74 | 0.16
COC[C@H](NC(=O)c1cnc(C)s1)C(=O)N[C@@H](COC)C(=O)N[C@@H](Cc1ccccc1)C(=O)[C@@]1(C)CO1 [Oprozomib] (top concentration 2500 nM) | 0.2 | -0.1 | 6.9 | 3.5 | 8.4 | 4.6 | 3.7 | -1.1 | 0.4 | 1.4 | 0.9 | 1.9 | -0.4 | 5.7 | 11.3 | 2.8 | 11.3 | 14 | -8.7 | -1.6
N[C@@H]1CCCN(c2c(/C=C3\SC(=O)NC3=O)cccc2-c2ccccc2)C1 [AZD1208] (top concentration 10000 nM) | 1.2 | 0.7 | -4.4 | -4.4 | 12.4 | -3.3 | -4.4 | -4.4 | 3.7 | 3.9 | 2.4 | -3.2 | -4.4 | -1.1 | -3.8 | -3.1 | -4.4 | -4.4 | -4.1 | 3.1
